According to patent US4013774A (priority 1975, dated 1977):
Where two headings read alike, the source gives them in different places.

Assays:
[1] = test system: Aphids (Aphis gossypii Glover); test: whole plant or invertebrate; settings: in Cucumis sativus, 24 h; for mortality at 4 ppm: read-out: Aphids, mortality, 4 ppm; for mortality at 40 ppm: read-out: Aphids, mortality, 40 ppm (*)
[2] = test system: American Cockroach (Periplaneta americana L.); test: whole plant or invertebrate; settings: 24 h; for mortality at 16 ppm: read-out: Cockroach, mortality, 16 ppm
in vivo = settings: rat, po
[3] = test system: Flour Beetle (Tribolium confusum DuVal); test: whole plant or invertebrate; settings: in Triticum aestivum, 168 h, read-out: Flour Beetle, mortality, 5 ppm
[4] = test system: Mosquito larvae (Aedes aegypti); test: whole plant or invertebrate; settings: 48 h, read-out: Mosquito, mortality, 0.05 ppm
rats = settings: background statement; cited from earlier work
insects = settings: against a variety of insects; background, U.S. Pat. No. 3,474,171; cited from earlier work
[5] = read-out: Aphids, mortality, 0.64 ppm
[6] = topical, read-out: Cockroach, mortality, 100 ppm

| SMILES | mortality at 0.64 ppm ([1]; read-out: control of aphids) | mortality at 100 ppm ([2]; read-out: control of American cockroaches) | LD50 (in vivo) | mortality at 0.64 ppm [1, 5] | mortality at 4 ppm [1] | mortality at 16 ppm ([2]; topical) | mortality at 100 ppm [2, 6] | mortality at 5 ppm [3] | mortality at 0.05 ppm [4] | mortality at 40 ppm [1] | oral toxicity, LD50 (rats) (rats) | contact and systemic activity (insects) |
| --- | --- | --- | --- | --- | --- | --- | --- | --- | --- | --- | --- | --- |
| CN(SN(C)C(=O)Oc1cccc2c1OC(C)(C)C2)C(=O)Oc1cccc2c1OC(C)(C)C2 [Bis[O-(2,3-dihydro-2,2-dimethyl-7-benzofuranyl]-N-methylcarbamyl] sulfide] | 100% | 100% |  |  |  |  |  |  |  |  |  |  |
| CN(SC(Cl)(Cl)Cl)C(=O)Oc1cccc2c1OC(C)(C)C2 [Compound 1, N-methyl-N-trichloromethylthio-2,3-dihydro-2,2-dimethyl-7-benzofuranyl carbamate] |  |  | 125 to 250 mg/kg | 91% | 100% | 15% | 100% | 100% | 46% |  |  |  |
| CSN(C)C(=O)Oc1cccc2c1OC(C)(C)C2 [Compound 3, 2,3-dihydro-2,2-dimethyl-7-benzofuranyl N-methyl N-methylthiocarbamate] |  |  | 5 to 25 mg/kg | 97% | 100% | 100% | 100% |  |  |  |  |  |
| CN(Sc1ccc(Cl)cc1)C(=O)Oc1cccc2c1OC(C)(C)C2 [Compound 4, 2,3-dihydro-2,2-dimethyl-7-benzofuranyl N-methyl N-p-chlorophenylthiocarbamate] |  |  | 25 to 41 mg/kg | 97% | 100% | 5% | 100% | 96% | 100% |  |  |  |
| CN(SC(Cl)=C(Cl)Cl)C(=O)Oc1cccc2c1OC(C)(C)C2 [Compound 5, N-methyl-N-trichlorovinylthio-2,3-dihydro-2,2-dimethyl-7-benzofuranyl carbamate] |  |  |  | 100% | 100% | 47% | 100% |  |  |  |  |  |
| CCCCSN(C)C(=O)Oc1cccc2c1OC(C)(C)C2 [Compound 6] |  |  | 60 to 125 mg/kg | 97% | 100% | 95% | 100% |  | 100% |  |  |  |
| CCSN(C)C(=O)Oc1cccc2c1OC(C)(C)C2 [Compound 7, N-methyl-N-ethylthio-2,3-dihydro-2,2-dimethyl-7-benzofuranyl carbamate] |  |  | 25 to 125 mg/kg | 92% |  |  |  |  | 26% |  |  |  |
| CCCCCCCCCCCCSN(C)C(=O)Oc1cccc2c1OC(C)(C)C2 [Compound 8, N-methyl-N-dodecylthio-2,3-dihydro-2,2-dimethyl-7-benzofuranyl carbamate] |  |  | > 125 mg/kg |  |  | 0% | 20% |  |  | 100% |  |  |
| CN(Sc1ccccc1)C(=O)Oc1cccc2c1OC(C)(C)C2 [Compound 9, N-methyl-N-phenylthio-2,3-dihydro-2,2-dimethyl-7-benzofuranyl carbamate] |  |  | 25 to 125 mg/kg | 98% | 100% | 37% | 100% |  |  |  |  |  |
| Cc1ccc(SN(C)C(=O)Oc2cccc3c2OC(C)(C)C3)cc1 [Compound 10] |  |  | 25 to 125 mg/kg | 96% | 100% | 2% | 100% | 76% |  |  |  |  |
| CN(Sc1ccc(Cl)c(Cl)c1)C(=O)Oc1cccc2c1OC(C)(C)C2 [Compound 11] |  |  | 25 to 125 mg/kg | 97% |  |  |  |  | 100% |  |  |  |
| CN(Sc1cc(Cl)ccc1Cl)C(=O)Oc1cccc2c1OC(C)(C)C2 [Compound 12] |  |  | 25 to 125 mg/kg | 61% |  |  |  |  | 100% |  |  |  |
| CN(Sc1ccc(Br)cc1)C(=O)Oc1cccc2c1OC(C)(C)C2 [Compound 13] |  |  | 25 to 125 mg/kg | 98% |  |  |  |  | 93% |  |  |  |
| CN(Sc1ccc(F)cc1)C(=O)Oc1cccc2c1OC(C)(C)C2 [Compound 14, N-methyl-N-4-fluorophenylthio-2,3-dihydro-2,2-dimethyl-7-benzofuranyl carbamate] |  |  | 25 to 125 mg/kg | 92% |  |  |  |  | 100% |  |  |  |
| CN(Sc1ccc([N+](=O)[O-])cc1)C(=O)Oc1cccc2c1OC(C)(C)C2 [Compound 15] |  |  | 25 to 60 mg/kg | 96% | 100% | 97% | 100% |  |  |  |  |  |
| CN(Sc1ccc(C(C)(C)C)cc1)C(=O)Oc1cccc2c1OC(C)(C)C2 [Compound 16] |  |  | 125 to 250 mg/kg |  |  | 0% | 67% |  |  | 100% |  |  |
| CNC(=O)Oc1cccc2c1OC(C)(C)C2 [FURADAN, N-methyl 2,3-dihydro-2,2-dimethyl-7-benzofuranyl carbamate, reference compound] |  |  | 11 mg/kg | 73 to 98% | 100% | 100% | 100% | 10% | 0% |  | 5 to 11 mg/kg | high contact and systemic activity |
